Measured values published in ChEMBL document CHEMBL1909046, “DrugMatrix in vitro pharmacology data”.

How the values were obtained:
[1] = DRUGMATRIX: beta-Lactamase enzyme inhibition (substrate: Nitrocefin); design: species or system Bacillus cereus; conditions: Not Active = under 50% inhibition at 10 µM
[2] = biological target: 5-hydroxytryptamine receptor 2B (Homo sapiens, UniProt P41595); format: cell membranes, CHO-K1, Membrane; further: in other assays of this panel Not Active means under 50% inhibition at 10 µM
[3] = biological target: T1, C-X-C chemokine receptor type 1 (Homo sapiens, UniProt P25024); further: in other assays of this panel Not Active means under 50% inhibition at 10 µM
T1 sequence (P25024 whole entry): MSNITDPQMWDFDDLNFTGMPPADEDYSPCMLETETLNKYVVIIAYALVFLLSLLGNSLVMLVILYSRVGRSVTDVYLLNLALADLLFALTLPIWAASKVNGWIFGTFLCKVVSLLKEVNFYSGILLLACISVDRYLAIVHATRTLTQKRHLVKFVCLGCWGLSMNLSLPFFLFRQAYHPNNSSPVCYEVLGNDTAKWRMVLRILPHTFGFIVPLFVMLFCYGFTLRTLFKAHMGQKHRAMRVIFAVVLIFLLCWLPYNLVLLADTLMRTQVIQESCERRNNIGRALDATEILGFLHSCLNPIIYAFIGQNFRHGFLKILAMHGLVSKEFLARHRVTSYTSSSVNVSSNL

[4] = biological target: Mitogen-activated protein kinase 1 (Homo sapiens, UniProt P28482); assay: DRUGMATRIX: Protein Serine/Threonine Kinase, ERK2 enzyme inhibition (substrate: Myelin Basic Protein); design: species or system Escherichia coli; conditions: Not Active = under 50% inhibition at 10 µM
Mu-type opioid receptor = Mu-type opioid receptor (Homo sapiens, UniProt P35372); assay: DRUGMATRIX: Opiate mu (OP3, MOP) radioligand binding (ligand: [3H] Diprenorphine); format: cell membranes, CHO-K1, Membrane; conditions: cho-k1; Not Active = under 50% inhibition at 10 µM
Thromboxane-A synthase = biological target: T2, Thromboxane-A synthase (Homo sapiens, UniProt P24557); assay: biochemical; format: tissue-based, Platelet;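 further: enzyme inhibition assay with PGH2 supplied as substrate; in other assays of this panel Not Active means under 50% inhibition at 10 µM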
T2 sequence (P24557 whole entry): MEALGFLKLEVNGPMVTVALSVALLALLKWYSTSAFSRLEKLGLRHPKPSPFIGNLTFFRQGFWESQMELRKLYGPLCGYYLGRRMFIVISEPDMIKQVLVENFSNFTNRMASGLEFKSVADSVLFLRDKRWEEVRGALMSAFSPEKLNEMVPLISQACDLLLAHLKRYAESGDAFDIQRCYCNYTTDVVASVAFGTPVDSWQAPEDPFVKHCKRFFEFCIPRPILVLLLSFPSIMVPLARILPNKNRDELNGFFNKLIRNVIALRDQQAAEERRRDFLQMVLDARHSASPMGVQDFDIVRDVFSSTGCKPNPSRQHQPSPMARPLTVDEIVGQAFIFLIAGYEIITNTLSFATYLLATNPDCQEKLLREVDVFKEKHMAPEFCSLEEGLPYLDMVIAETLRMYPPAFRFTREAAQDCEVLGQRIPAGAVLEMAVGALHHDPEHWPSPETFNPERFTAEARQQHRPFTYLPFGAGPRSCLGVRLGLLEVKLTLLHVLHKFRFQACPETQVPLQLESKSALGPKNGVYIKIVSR

Cytochrome P450 3A4 = Cytochrome P450 3A4 (Homo sapiens, UniProt P08684); conditions: bti-tn-5b1-4; further: in other assays of this panel Not Active means under 50% inhibition at 10 µM
Cytochrome P450 3A4, sequence (P08684 whole entry): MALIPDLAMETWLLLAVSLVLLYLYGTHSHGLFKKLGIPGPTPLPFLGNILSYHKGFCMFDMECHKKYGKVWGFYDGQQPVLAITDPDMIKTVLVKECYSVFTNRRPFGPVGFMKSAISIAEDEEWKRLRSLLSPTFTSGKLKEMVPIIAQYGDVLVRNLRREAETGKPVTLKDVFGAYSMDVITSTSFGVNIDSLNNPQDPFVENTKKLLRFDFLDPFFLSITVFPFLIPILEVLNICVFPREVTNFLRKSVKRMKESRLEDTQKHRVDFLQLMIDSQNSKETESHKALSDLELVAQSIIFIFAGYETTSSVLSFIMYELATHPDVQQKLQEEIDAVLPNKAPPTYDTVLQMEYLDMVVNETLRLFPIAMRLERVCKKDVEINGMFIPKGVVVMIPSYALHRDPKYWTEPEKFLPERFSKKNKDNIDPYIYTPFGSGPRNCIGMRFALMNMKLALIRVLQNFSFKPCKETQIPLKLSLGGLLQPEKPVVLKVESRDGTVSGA

Mitogen-activated protein kinase 1, sequence (P28482 whole entry): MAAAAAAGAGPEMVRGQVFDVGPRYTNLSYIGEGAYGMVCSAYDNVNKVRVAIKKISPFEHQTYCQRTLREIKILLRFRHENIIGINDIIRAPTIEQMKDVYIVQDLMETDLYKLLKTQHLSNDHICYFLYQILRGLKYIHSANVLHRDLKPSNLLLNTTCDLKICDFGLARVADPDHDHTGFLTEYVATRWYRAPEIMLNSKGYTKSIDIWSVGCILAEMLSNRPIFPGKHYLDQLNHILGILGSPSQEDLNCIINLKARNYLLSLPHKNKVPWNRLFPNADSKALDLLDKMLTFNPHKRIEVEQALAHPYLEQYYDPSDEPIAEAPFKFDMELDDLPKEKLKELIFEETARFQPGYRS
Mu-type opioid receptor, sequence (P35372 whole entry): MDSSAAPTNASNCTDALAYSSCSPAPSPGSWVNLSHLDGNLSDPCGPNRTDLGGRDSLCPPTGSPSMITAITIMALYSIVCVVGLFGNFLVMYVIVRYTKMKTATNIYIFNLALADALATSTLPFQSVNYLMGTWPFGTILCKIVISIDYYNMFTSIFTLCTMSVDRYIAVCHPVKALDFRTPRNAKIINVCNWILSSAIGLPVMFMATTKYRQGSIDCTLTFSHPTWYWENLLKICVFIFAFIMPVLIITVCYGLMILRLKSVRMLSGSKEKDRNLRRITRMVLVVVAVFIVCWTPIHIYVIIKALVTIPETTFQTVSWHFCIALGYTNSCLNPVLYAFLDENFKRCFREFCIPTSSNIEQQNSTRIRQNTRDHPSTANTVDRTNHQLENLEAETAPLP
5-hydroxytryptamine receptor 2B, sequence (P41595 whole entry): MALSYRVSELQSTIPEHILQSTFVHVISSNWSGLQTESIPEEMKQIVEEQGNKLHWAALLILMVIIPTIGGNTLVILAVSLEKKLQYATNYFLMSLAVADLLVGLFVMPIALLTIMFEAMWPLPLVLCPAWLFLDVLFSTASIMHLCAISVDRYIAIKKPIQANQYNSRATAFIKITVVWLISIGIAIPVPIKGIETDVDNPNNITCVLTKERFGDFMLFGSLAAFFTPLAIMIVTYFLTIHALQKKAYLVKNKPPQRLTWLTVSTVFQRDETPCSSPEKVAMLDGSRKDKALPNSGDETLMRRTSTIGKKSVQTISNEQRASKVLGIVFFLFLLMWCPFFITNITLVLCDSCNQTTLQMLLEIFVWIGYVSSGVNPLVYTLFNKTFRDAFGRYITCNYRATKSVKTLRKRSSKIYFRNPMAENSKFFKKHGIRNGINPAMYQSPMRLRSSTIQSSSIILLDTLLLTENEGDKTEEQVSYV

| Molecule | IC50 [1] | Ki [1] | IC50 ([2]; read-out: IC50) | Ki ([2]; read-out: Ki) | IC50 [3] | IC50 [4] | IC50 (Mu-type opioid receptor) | IC50 (Thromboxane-A synthase; platelet) | IC50 (Cytochrome P450 3A4) | Ki (Cytochrome P450 3A4) | IC50 ([2]; cho-k1) | IC50 ([4]; read-out: IC50) | IC50 (Thromboxane-A synthase; read-out: IC50) | Ki ([2]; cho-k1) | Ki [3] | Ki [4] | Ki (Thromboxane-A synthase; platelet) | IC50 (Thromboxane-A synthase; platelet, read-out: IC50) |
| --- | --- | --- | --- | --- | --- | --- | --- | --- | --- | --- | --- | --- | --- | --- | --- | --- | --- | --- |
| O=C(c1ccccc1C(F)(F)F)N1CCC(Cc2ccccc2)CC1 | Not Active | Not Active | 1550 nM | 986 nM | Not Active | Not Active | Not Active | Not Active | Not Active | Not Active |  |  |  |  |  |  |  |  |
| O=C/C=C/c1ccccc1 | Not Active | Not Active |  |  | Not Active | Not Active |  | Not Active | Not Active | Not Active | Not Active |  |  |  |  |  |  |  |
| Nc1ccc2c3c(cccc13)C(=O)NC2=O | Not Active | Not Active |  |  | Not Active | Not Active | Not Active | Not Active | Not Active | Not Active | Not Active |  |  |  |  |  |  |  |
| COc1ccc(C(=O)N2CCCC2=O)cc1 | Not Active | Not Active |  |  | Not Active | Not Active | Not Active | Not Active | Not Active | Not Active | Not Active |  |  |  |  |  |  |  |
| O=c1cnn([C@@H]2O[C@H](CO)[C@@H](O)[C@H]2O)c(=O)[nH]1 [6-AZAURIDINE] | Not Active | Not Active |  |  | Not Active | Not Active | Not Active | Not Active | Not Active | Not Active | Not Active |  |  |  |  |  |  |  |
| NCCCC(O)(P(=O)(O)O)P(=O)(O)O [ALENDRONIC ACID] | Not Active | Not Active |  |  | Not Active | Not Active | Not Active | Not Active |  |  | Not Active |  |  |  |  |  |  |  |
| Cc1nnc2n1-c1ccc(Cl)cc1C(c1ccccc1)=NC2 [ALPRAZOLAM] | Not Active | Not Active |  |  | Not Active | Not Active |  | Not Active | Not Active | Not Active | Not Active |  |  |  |  |  |  |  |
| CN1[C@@H]2CC[C@H]1C[C@@H](OC(=O)C(CO)c1ccccc1)C2 (stereo not given in full) [ATROPINE] | Not Active | Not Active |  |  | Not Active | Not Active | Not Active | Not Active |  |  | Not Active |  |  |  |  |  |  |  |
| CN/C(=N\CCSCc1nc[nH]c1C)NC#N [CIMETIDINE] | Not Active | Not Active |  |  | Not Active | Not Active | Not Active | Not Active |  |  | Not Active |  |  |  |  |  |  |  |
| COc1cc(N)c(Cl)cc1C(=O)NC1CCN(CCCOc2ccc(F)cc2)CC1OC (stereo not given) [CISAPRIDE] | Not Active | Not Active |  |  | Not Active | Not Active | Not Active | Not Active |  |  |  |  |  |  |  |  |  |  |
| C[C@@H]1C[C@H]2[C@@H]3CCC4=CC(=O)C=C[C@]4(C)[C@@]3(F)[C@@H](O)C[C@]2(C)[C@@]1(O)C(=O)CO [DEXAMETHASONE] | Not Active | Not Active |  |  | Not Active | Not Active | Not Active | Not Active |  |  | Not Active |  |  |  |  |  |  |  |
| C[C@@H](CO)NC(=O)[C@@H]1C=C2c3cccc4[nH]cc(c34)C[C@H]2N(C)C1 [ERGONOVINE] | Not Active | Not Active | 4.14 nM | 2.63 nM | Not Active | Not Active |  | Not Active | Not Active | Not Active |  |  |  |  |  |  |  |  |
| COc1cc([C@@H]2c3cc4c(cc3[C@@H](O[C@@H]3O[C@@H]5CO[C@@H](C)O[C@H]5[C@H](O)[C@H]3O)[C@H]3COC(=O)[C@H]23)OCO4)cc(OC)c1O [ETOPOSIDE] | Not Active | Not Active |  |  | Not Active | Not Active | Not Active | Not Active |  |  | Not Active |  |  |  |  |  |  |  |
| COc1ccc2c3c1O[C@H]1C[C@@H](O)C=C[C@@]31CCN(C)C2 [GALANTAMINE] | Not Active | Not Active |  |  | Not Active | Not Active | Not Active | Not Active |  |  | Not Active |  |  |  |  |  |  |  |
| CC(C)=CCC/C(C)=C/CO [GERANIOL] | Not Active | Not Active |  |  | Not Active | Not Active | Not Active | Not Active |  |  | Not Active |  |  |  |  |  |  |  |
| Oc1c(Cl)cc(Cl)c(Cl)c1Cc1c(O)c(Cl)cc(Cl)c1Cl [HEXACHLOROPHENE] | Not Active | Not Active |  |  | Not Active |  | Not Active |  | Not Active | Not Active |  | 196 nM | 3090 nM |  |  |  |  |  |
| CC(=O)[C@@]1(O)CC[C@H]2[C@@H]3CCC4=CC(=O)CC[C@]4(C)[C@H]3CC[C@@]21C [HYDROXYPROGESTERONE] | Not Active | Not Active |  |  | Not Active | Not Active | Not Active | Not Active |  |  | Not Active |  |  |  |  |  |  |  |
| COC1=C(OC)C(=O)C(CCCCCCCCCCO)=C(C)C1=O [IDEBENONE] | Not Active | Not Active |  |  | Not Active | Not Active | Not Active | Not Active |  |  | Not Active |  |  |  |  |  |  |  |
| C[n+]1ccc(-c2cc[n+](C)cc2)cc1.[Cl-].[Cl-] [PARAQUAT DICHLORIDE] | Not Active | Not Active |  |  | Not Active | Not Active |  | Not Active | Not Active | Not Active | Not Active |  |  |  |  |  |  |  |
| CC(C)NCC(O)COc1cccc2[nH]ccc12 (stereo not given) [PINDOLOL] | Not Active | Not Active |  |  | Not Active | Not Active | Not Active | Not Active |  |  | Not Active |  |  |  |  |  |  |  |
| CCCNCC(O)COc1ccccc1C(=O)CCc1ccccc1 (stereo not given) [PROPAFENONE] | Not Active | Not Active |  |  | Not Active | Not Active | Not Active | Not Active |  |  |  |  |  |  |  |  |  |  |
| CC(C)c1cccc(C(C)C)c1O [PROPOFOL] | Not Active | Not Active | 5500 nM | 3500 nM | Not Active | Not Active | Not Active | Not Active |  |  |  |  |  |  |  |  |  |  |
| C[C@@H]1O[C@@H](O[C@@H]2C=C3CC[C@@H]4[C@H](CC[C@]5(C)[C@@H](c6ccc(=O)oc6)CC[C@]45O)[C@@]3(C)CC2)[C@H](O)[C@H](O)[C@H]1O [PROSCILLARIDIN] | Not Active | Not Active |  |  | Not Active | Not Active |  | Not Active | Not Active | Not Active | Not Active |  |  |  |  |  |  |  |
| AURANOFIN | Not Active | Not Active |  |  | Not Active | Not Active |  | Not Active | Not Active | Not Active | Not Active |  |  | Not Active | Not Active | Not Active | Not Active |  |
| GADOPENTETATE DIMEGLUMINE | Not Active | Not Active |  |  | Not Active | Not Active |  | Not Active | Not Active | Not Active | Not Active |  |  | Not Active | Not Active | Not Active | Not Active |  |
| GENTAMICIN | Not Active | Not Active |  |  | Not Active | Not Active |  | Not Active | Not Active | Not Active | Not Active |  |  | Not Active | Not Active | Not Active | Not Active |  |
| GRAMICIDIN | Not Active | Not Active |  |  | Not Active | Not Active |  |  | Not Active | Not Active | Not Active |  |  | Not Active | Not Active | Not Active |  | 774 nM |
| NYSTATIN | Not Active | Not Active |  |  | Not Active | Not Active |  | Not Active | Not Active | Not Active | Not Active |  |  | Not Active | Not Active | Not Active | Not Active |  |
